In patent US20260116868A1 (Arcus Biosciences, Inc., priority 2023, published 2026):
pIC50: −log10 of the molar value.

Target: T1, Cbl-b (Homo sapiens, UniProt Q13191)
T1 construct: biotin (biotinylated protein)
Assay: Cbl-b probe displacement HTRF binding assay
Conditions: 0.4 nM Cbl-b, 150 nM BODIPY probe
Method: The affinity with which compounds of the present disclosure bind to Cbl-b was assessed using probe displacement homologous time resolved fluorescence (HTRF) assays. The assays used a BODIPY™ conjugated probe (Example 54 from WO 2020264398) and biotinylated Cbl-b. The assays were performed in assay buffer consisting of 20 mM Hepes, 150 mM NaCl, 0.01% Triton X-100, 0.5 mM TCEP, 0.01% BSA. On the day of the assay, a 20 point, 1:2 master serial dilution of each compound was prepared in DMSO to span a final concentration range of […] to 0 nM. Two hundred nanoliters of diluted compound was added to each well of a 384-well plate. Fifteen microliters of biotinylated- Cbl-b resuspended in assay buffer were added to each well and the plate incubated for 60 minutes at room temperature prior to addition of 5 μL of BODIPY™ probe in assay buffer. Final assay conditions included 0.4 nM of Cbl-b and 150 nM of BODIPY™ probe. After a further 15 minutes of incubation at room temperature, 5 μl of Streptavidin-Terbium cryptate reagent at 5-fold final concentration was added to each well of the 384-well plate. Binding of a probe to Cbl-b results in an increase of HTRF signal. HTRF signal was measured by Envision plate reader, while competition of a compound of the present disclosure with probe results in a decrease of signal. Percentage maximum activity in each test well was calculated based on DMSO (maximum activity, 0% displacement) and no protein control wells (baseline activity, 100% displacement). Binding affinity was determined from a dose response curve fitted using a standard four parameter fit equation. See Table 7 for data for compounds (Cbl-b Binding (IC50)).

T1 sequence (Q13191 whole entry, species assumed): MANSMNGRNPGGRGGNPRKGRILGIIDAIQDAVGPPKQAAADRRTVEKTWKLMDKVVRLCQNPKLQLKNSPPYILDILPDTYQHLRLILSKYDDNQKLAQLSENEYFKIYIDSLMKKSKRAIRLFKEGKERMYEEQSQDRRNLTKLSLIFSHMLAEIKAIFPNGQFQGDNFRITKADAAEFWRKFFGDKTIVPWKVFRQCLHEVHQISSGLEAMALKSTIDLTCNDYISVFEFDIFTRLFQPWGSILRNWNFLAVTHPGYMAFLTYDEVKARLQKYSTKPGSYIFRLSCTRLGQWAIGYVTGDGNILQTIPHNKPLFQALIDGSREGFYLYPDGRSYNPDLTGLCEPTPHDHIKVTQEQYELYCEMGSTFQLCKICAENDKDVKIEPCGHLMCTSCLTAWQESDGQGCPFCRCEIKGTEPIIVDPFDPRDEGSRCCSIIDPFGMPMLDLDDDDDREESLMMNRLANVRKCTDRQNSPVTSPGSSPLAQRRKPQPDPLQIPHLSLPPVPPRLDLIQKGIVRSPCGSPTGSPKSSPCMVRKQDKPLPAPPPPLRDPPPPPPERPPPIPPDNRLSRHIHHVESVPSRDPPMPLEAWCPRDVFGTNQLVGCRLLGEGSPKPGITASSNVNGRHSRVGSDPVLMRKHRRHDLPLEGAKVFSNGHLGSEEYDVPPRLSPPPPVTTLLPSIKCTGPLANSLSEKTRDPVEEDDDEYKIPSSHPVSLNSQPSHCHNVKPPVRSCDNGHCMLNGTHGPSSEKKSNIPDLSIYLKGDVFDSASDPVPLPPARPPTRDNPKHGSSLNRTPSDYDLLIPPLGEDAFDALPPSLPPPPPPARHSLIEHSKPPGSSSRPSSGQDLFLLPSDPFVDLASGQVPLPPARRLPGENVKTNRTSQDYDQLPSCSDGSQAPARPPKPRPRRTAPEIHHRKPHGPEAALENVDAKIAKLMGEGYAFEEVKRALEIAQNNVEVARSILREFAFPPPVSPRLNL

Compound	pIC50
COc1ccc(-c2cc(NC(=O)c3cc(CNC[C@H](C)OC)cn(C)c3=O)nc(C3CC3)c2)c(C(=O)N2CC(F)C2)c1 [Example 301]	> 7.00
N#Cc1ccc(-c2cc(NC(=O)c3cc(CNCC4CCC4)cn(C4CC4)c3=O)nc(C3CC3)c2)c(C(=O)N2CC(F)(F)C2)c1 [Example 355]	> 7.00
CC(C)Oc1cc(-c2ccc(C#N)cc2C(=O)N2CC(F)(F)C2)cc(NC(=O)c2cc(CNC[C@@H]3CCCCO3)cn(C3CC3)c2=O)n1 [Example 392]	> 7.00
Cn1cc(CNC[C@@H]2CCCO2)cc(C(=O)Nc2cc(-c3c(F)cc(C#N)cc3C(=O)N3CC(F)(F)C3)cc(C3CC3)n2)c1=O [Example 241]	> 7.00
CC(C)Oc1cc(-c2ccc(OC(F)F)cc2C(=O)N2CC(F)(F)C2)cc(NC(=O)c2cc(CN[C@@H](C)C3CCC3)cn(C)c2=O)n1 [Example 112]	> 7.00
CC(C)CNCc1cc(C(=O)Nc2cc(-c3c(F)cc(C#N)cc3C(=O)N3CC(F)(F)C3)cc(OC(C)C)n2)c(=O)n(C)c1 [Example 234]	> 7.00
CCOc1cc(-c2ccc(Cl)cc2C(=O)N2CC(F)C2)cc(NC(=O)c2cc(CNC[C@H](C)OC)cn(C3CC3)c2=O)n1 [Example 255]	> 7.00
CC(NCC1CC1)c1cc(C(=O)Nc2cc(-c3ccc(C#N)cc3C(=O)N3CC(F)(F)C3)cc(C3CC3)n2)c(=O)n(C2CC2)c1 (centres unmarked) [Example 333]	> 7.00
CCOc1cc(-c2c(F)cc(C#N)cc2C(=O)N2CC(F)(F)C2)cc(NC(=O)c2cc(CNC[C@H](C)OC)cn(C3CC3)c2=O)n1 [Example 340]	> 7.00
CC(C)Nc1cc(-c2c(F)cc(Cl)cc2C(=O)N2CC(F)(F)C2)cc(NC(=O)c2cc(CNC[C@@H]3CCCO3)cn(C3CC3)c2=O)n1 [Example 208]	> 7.00
C[C@H](NCc1cc(C(=O)Nc2cc(-c3ccc(OC(F)F)cc3C(=O)N3CC(F)C3)cc(OC3CC3)n2)c(=O)n(C)c1)C1CCC1 [Example 262]	> 7.00
CC(C)[C@H](C)NCc1cc(C(=O)Nc2cc(-c3ccc(Cl)cc3C(=O)N3CC(F)(F)C3)cc(C3CC3)n2)c(=O)n(C2CC2)c1 [Example 395]	> 7.00
CO[C@@H](C)CNCc1cc(C(=O)Nc2cc(-c3ccc(C#N)cc3C(=O)N3CC(F)(F)C3)cc(N(C)C)n2)c(=O)n(C2CC2)c1 [Example 191]	> 7.00
COCCNCc1cc(C(=O)Nc2cc(-c3ccc(F)cc3C(=O)N3CC(F)(F)C3)cc(C3CC3)n2)c(=O)n(C2CC2)c1 [Example 403]	> 7.00
CCn1cc(CNC[C@H](C)OC)cc(C(=O)Nc2cc(-c3ccc(C#N)cc3C(=O)N3CC(F)(F)C3)cc(C3CC3)n2)c1=O [Example 170]	> 7.00
COc1ccc(-c2cc(NC(=O)c3cc(CNC[C@H](C)OC)cn(C)c3=O)nc(OC(C)C)c2)c(C(=O)N2CC(F)C2)c1 [Example 302]	> 7.00
COc1ccc(-c2cc(NC(=O)c3cc(CNC[C@H](C)OC)cn(C)c3=O)nc(OC(C)C)c2)c(C(=O)N2CC(F)(F)C2)c1 [Example 308]	> 7.00
CC(C)CNCc1cc(C(=O)Nc2cc(-c3ccc(C(F)F)cc3C(=O)N3CC(F)C3)cc(OC(C)C)n2)c(=O)n(C2CC2)c1 [Example 310]	> 7.00
CCn1cc(CNCC(C)C)cc(C(=O)Nc2cc(-c3ccc(C#N)cc3C(=O)N3CC(F)(F)C3)cc(C3CC3)n2)c1=O [Example 168]	> 7.00

Compound	pIC50
CO[C@@H](C)CNCc1cc(C(=O)Nc2cc(-c3ccc(Cl)cc3C(=O)N3CCC3)cc(C3CC3)n2)c(=O)n(C2CC2)c1 [Example 156, N-(4-{2-[(1-Azetidinyl)carbonyl]-4-chlorophenyl}-6-cyclopropyl-2-pyridyl)-1-cyclopropyl-5-{[(S)-2-methoxypropylamino]methyl}-2-oxo-1,2-dihydronicotinamide]	> 7.00
COCCNCc1cc(C(=O)Nc2cc(-c3ccc(Cl)cc3C(=O)N3CC(F)C3)cc(C3CC3)n2)c(=O)n(C2CC2)c1 [Example 285]	> 7.00
CCOc1cc(-c2c(F)cc(Cl)cc2C(=O)N2CC(F)(F)C2)cc(NC(=O)c2cc(CNC[C@@H]3CCCO3)cn(C3CC3)c2=O)n1 [Example 210]	> 7.00
N#Cc1ccc(-c2cc(NC(=O)c3cc(CNC[C@@H]4COCCO4)cn(C4CC4)c3=O)nc(C3CC3)c2)c(C(=O)N2CC(F)(F)C2)c1 [Example 369]	> 7.00
COc1ccc(-c2cc(NC(=O)c3cc(CNC[C@H](C)OC)cn(C4CC4)c3=O)nc(C3CC3)c2)c(C(=O)N2CC(F)C2)c1 [Example 270]	> 7.00
CO[C@@H](C)CNCc1cc(C(=O)Nc2cc(-c3ccc(OC(F)F)cc3C(=O)N3CC(F)(F)C3)cc(OC(C)C)n2)c(=O)n(C2CC2)c1 [Example 197]	> 7.00
COc1ccc(-c2cc(NC(=O)c3cc(CN[C@@H](C)C4CCC4)cn(C4CC4)c3=O)nc(C3CC3)c2)c(C(=O)N2CC(F)C2)c1 [Example 260]	> 7.00
CCNc1cc(-c2ccc(Cl)cc2C(=O)N2CC(F)(F)C2)cc(NC(=O)c2cc(CNC[C@@H]3CCCO3)cn(C)c2=O)n1 [Example 182]	> 7.00
CCOc1cc(-c2ccc(Cl)cc2C(=O)N2CC(F)(F)C2)cc(NC(=O)c2cc(CN[C@@H](C)C3CC3)cn(C3CC3)c2=O)n1 [Example 124]	> 7.00
CO[C@@H](C)CNCc1cc(C(=O)Nc2cc(-c3ccc(OC(F)F)cc3C(=O)N3CC(F)(F)C3)cc(Cl)n2)c(=O)n(C2CC2)c1 [Example 149, N-(6-chloro-4-{2-[(3,3-difluoro-1-azetidinyl)carbonyl]-4-difluoromethoxyphenyl}-2-pyridyl)-1-cyclopropyl-5-{[(S)-2-methoxypropylamino]methyl}-2-oxo-1,2-dihydronicotinamide]	> 7.00
COC[C@H](C)NCc1cc(C(=O)Nc2cc(-c3ccc(Cl)cc3C(=O)N3CC(F)(F)C3)cc(C3CC3)n2)c(=O)n(C2CC2)c1 [Example 372]	> 7.00
CO[C@@H](C)CNCc1cc(C(=O)Nc2cc(-c3ccc(Cl)cc3C(=O)N3CC(F)C3)cc(NC(C)C)n2)c(=O)n(C2CC2)c1 [Example 258]	> 7.00
C[C@H](NCc1cc(C(=O)Nc2cc(-c3ccc(C#N)cc3C(=O)N3CC(F)(F)C3)cc(C3CC3)n2)c(=O)n(C)c1)C1CCC1 [Example 167]	> 7.00
Cc1ccc(-c2cc(NC(=O)c3cc(CNC[C@@H]4CCCO4)cn(C4CC4)c3=O)nc(OC(C)C)c2)c(C(=O)N2CC(F)C2)c1 [Example 309]	> 7.00
CCOc1cc(-c2ccc(C#N)cc2C(=O)N2CC(F)(F)C2)cc(NC(=O)c2cc(CNC[C@H](C)OC)cn(C3CC3)c2=O)n1 [Example 206]	> 7.00
CC(C)Oc1cc(-c2ccc(C#N)cc2C(=O)N2CC(F)(F)C2)cc(NC(=O)c2cc(CNC[C@@H]3CCCO3)cn(C)c2=O)n1 [Example 389]	> 7.00
CC(C)CCNCc1cc(C(=O)Nc2cc(-c3ccc(Cl)cc3C(=O)N3CC(F)(F)C3)cc(C3CC3)n2)c(=O)n(C2CC2)c1 [Example 410]	> 7.00
CC(C)Oc1cc(-c2ccc(Cl)cc2C(=O)N2CC(F)C2)cc(NC(=O)c2cc(CN[C@@H](C)C3CCC3)cn(C3CC3)c2=O)n1 [Example 256]	> 7.00
CCOc1cc(-c2ccc(Cl)cc2C(=O)N2CC(F)(F)C2)cc(NC(=O)c2cc(CN[C@@H](C)C3CCC3)cn(C3CC3)c2=O)n1 [Example 122, N-(4-{4-chloro-2-[(3,3-difluoro-1-azetidinyl)carbonyl]phenyl}-6-ethoxy-2-pyridyl)-5-{[(S)-1-cyclobutylethylamino]methyl}-1-cyclopropyl-2-oxo-1,2-dihydronicotinamide]	> 7.00
